Reference: US20030166922A1, “Novel cephalosporin compounds and process for preparing the same” (priority 2000, published 2003)
≈ marks a conversion by molar mass, not a printed value. Like-named read-outs stand apart in the source and are kept apart here.

Key:
Assay in all cases: Minimum Inhibitory Concentration (MIC), agar dilution, standard strains
[1] = system: Staphylococcus aureus giorgio; assay type: cell-based; conditions: Mueller-Hinton agar, 37° C., 20 hours; for Minimum Inhibitory Concentration (MIC), S. aureus giorgio: Table 2; for Minimum Inhibitory Concentration (MIC), Staphylococcus aureus giorgio / MIC: Table 1; for MIC: Staphylococcus aureus, read-out: Minimum Inhibitory Concentration (MIC), Staphylococcus aureus giorgio
Description: (§1) Minimum Inhibitory Concentration (MIC)
(§2) The effectiveness of the compound according to the present invention was determined by obtaining Minimum Inhibitory Concentration (MIC) of the compounds prepared by the above Examples (I-1 to I-33) and vancomycin, which is the known compound having a potent activity against gram-positive strains, as the control drug against the standard strains. Specifically, Minimum Inhibitory Concentration was obtained by diluting the test material with a double dilution method, dispersing them in Mueller-Hinton agar medium, inoculating each of the test strain having 10^7 cfu (colny forming unit) in an amount of 2:1 to the medium and then incubating them at 37° C. for 20 hours.

[2] = system: S. epidermidis R005; assay type: cell-based; conditions: Mueller-Hinton agar, 37° C., 20 hours; for MIC: Staphylococcus epidermidis, R005, read-out: Minimum Inhibitory Concentration (MIC), S. epidermidis R005
Description: as §1, §2

[3] = system: E. faecalis EFS004; assay type: cell-based; conditions: Table 2; Mueller-Hinton agar, 37° C., 20 hours
Description: as §1, §2

[4] = system: S. aureus 77; assay type: cell-based, Staphylococcus aureus; conditions: Mueller-Hinton agar, 37° C., 20 hours; for MIC: Staphylococcus aureus, 77, read-out: Minimum Inhibitory Concentration (MIC), S. aureus 77
Description: as §1, §2

[5] = system: S. aureus K311; assay type: cell-based, Staphylococcus aureus; conditions: Table 2; Mueller-Hinton agar, 37° C., 20 hours
Description: as §1, §2

[6] = system: E. faecalis L239; assay type: cell-based; conditions: Table 1, Mueller-Hinton agar, 37° C., 20 hours; for MIC: Enterococcus faecalis, L239, read-out: Minimum Inhibitory Concentration (MIC), E. faecalis L239
Description: as §1, §2

[7] = system: S. aureus 241; assay type: cell-based, Staphylococcus aureus; conditions: Table 1, Mueller-Hinton agar, 37° C., 20 hours; for MIC: Staphylococcus aureus, 241, read-out: Minimum Inhibitory Concentration (MIC), S. aureus 241
Description: as §1, §2

Compound	Minimum Inhibitory Concentration (MIC), S. aureus giorgio [1]	Minimum Inhibitory Concentration (MIC), E. faecalis EFS004 [3]	Minimum Inhibitory Concentration (MIC), S. aureus K311 [5]	Minimum Inhibitory Concentration (MIC), S. epidermidis R005 ([2]; Table 2)	Minimum Inhibitory Concentration (MIC), S. aureus 77 ([4]; Table 2)	Minimum Inhibitory Concentration (MIC), Staphylococcus aureus giorgio [1]	Minimum Inhibitory Concentration (MIC), S. epidermidis R005 ([2]; Table 1)	Minimum Inhibitory Concentration (MIC), E. faecalis L239 [6]	Minimum Inhibitory Concentration (MIC), S. aureus 77 ([4]; Table 1)	Minimum Inhibitory Concentration (MIC), S. aureus 241 [7]	also measured
Nc1nc(O)cc(SCSC2=C(C(=O)O)N3C(=O)[C@@H](NC(=O)CSc4cc(Cl)nc(Cl)c4)[C@H]3SC2)n1 [Example I-28, (6R,7R)-3-({[(2-amino-6-hydroxy-4-pyrimidinyl)sulfanyl]methyl}sulfanyl)-7-({2-[(2,6-dic hloro-4-pyridinyl)sulfanyl]acetyl}amino)-8-oxo-5-thia-1-azabicyclo[4.2.0]-oct-2-ene-2-car boxylic acid]	0.031 :g/ml	1 :g/ml	0.5 :g/ml	–	–	–	–	–	–	–	MIC ([2]; Table 2): 0.25 µg/mL (≈ 0.411 µM); MIC ([4]; Table 2): 0.25 µg/mL (≈ 0.411 µM)
Nc1cc(N)nc(SCSC2=C(C(=O)O)N3C(=O)[C@@H](NC(=O)CSc4cc(Cl)nc(Cl)c4)[C@H]3SC2)n1 [Example I-25, (6R,7R)-3-({[(4,6-diamino-2-pyrimidinyl)sulfanyl]methyl}sulfanyl)-7-({2-[(2,6-dichloro-4-pyridinyl)sulfanyl]acetyl}amino)-8-oxo-5-thia-1-azabicyclo[4.2.0]oct-2-ene-2-carboxylic acid]	0.016 :g/ml	0.5 :g/ml	0.5 :g/ml	–	–	–	–	–	–	–	MIC ([2]; Table 2): 0.25 µg/mL (≈ 0.412 µM); MIC ([4]; Table 2): 0.25 µg/mL (≈ 0.412 µM)
C[n+]1c(SCSC2=C(C(=O)O)N3C(=O)[C@@H](NC(=O)CSc4cc(Cl)nc(Cl)c4)[C@H]3SC2)cc(N)nc1N [Example I-33, 2,4-diamino-6-[({[(6R,7R)-2-carboxy-7-({2-[(2,6-dichloro-4-pyridinyl)sulf-anyl]acetyl}amino)-8-oxo-5-thia-1-azabicyclo[4.2.0]oct-2-en-3-yl]sulfanyl}methyl)sulfan-yl]-1-methylp yrimidin-1-ium]	0.031 :g/ml	0.5 :g/ml	1 :g/ml	0.25 :g/ml	0.25 :g/ml	–	–	–	–	–	–
O=C(CSc1cc(Cl)nc(Cl)c1)N[C@@H]1C(=O)N2C(C(=O)O)=C(SCSc3nc(O)cc(NCCO)n3)CS[C@H]12 [Example I-32, (6R,7R)-7-({2-[(2,6-dichloro-4-pyridinyl)sulfanyl]acetyl}amino)-3-{[({4-hy-droxy-6-[(2-hydroxyethyl)amino]-2-pyrimidinyl}sulfanyl)methyl]sulfanyl}-8-oxo-5-thia-1-azabicyclo[4. 2.0]oct-2-ene-2-carboxylic acid]	0.13 :g/ml	1 :g/ml	1 :g/ml	1 :g/ml	0.1 :g/ml	–	–	–	–	–	–
Nc1nc(SCSC2=C(C(=O)O)N3C(=O)[C@@H](NC(=O)CSc4cc(Cl)nc(Cl)c4)[C@H]3SC2)nc2[nH]ncc12 [Example I-26, (6R,7R)-3-({[(4-amino-1H-pyrazolo[3 ,4-d]pyrimidin-6-yl)sulfanyl]methy-1}sulfanyl)-7-({2-[(2,6-dichloro-4-pyridinyl)sulfanyl]acetyl}amino)-8-oxo-5-thia-1-azabi-cyclo[4.2.0]oct-2-ene-2-carboxylic acid]	0.016 :g/ml	0.5 :g/ml	0.5 :g/ml	0.25 :g/ml	0.25 :g/ml	–	–	–	–	–	–
Cc1c(N)nc([S+]([O-])CSC2=C(C(=O)O)N3C(=O)[C@@H](NC(=O)CSc4cc(Cl)ccc4Cl)[C@H]3SC2)[n+](N)c1N (stereo partly drawn) [Example I-23, (6R,7R)-1,4,6-triamino-2-[({[(2-carboxy-7-({2-[(2,5-dichlorophenyl)sulfan-yl]acetyl}amino)-8-oxo-5-thia-1-azabicyclo[4.2.0]oct-2-en-3-yl)]sulfanyl}methyl)sulfin-yl]-5-methylpyri midin-1-ium]	–	–	–	–	–	0.5 :g/ml	8 :g/ml	16 :g/ml	8 :g/ml	>32 :g/ml	–
Nc1nc(O)cc(SCSC2=C(C(=O)O)N3C(=O)[C@@H](NC(=O)CSc4cc(Cl)ccc4Cl)[C@H]3SC2)n1 [Example I-2, (6R,7R)-3-({[(2-amino-6-hydroxy-4-pyrimidinyl)sulfanyl]methyl}sulfanyl)-7-({2-[(2,5-dic hlorophenyl)sulfanyl]acetyl}amino)-8-oxo-5-thia-1-azabicyclo[4.2.0]oct-2-ene-2-carboxylic acid]	–	–	–	–	–	–	–	–	–	–	MIC [1]: < 0.008 µg/mL; MIC ([2]; Table 1): 0.063 µg/mL (≈ 0.104 µM); MIC [6]: 0.25 µg/mL (≈ 0.412 µM); MIC ([4]; Table 1): 0.13 µg/mL (≈ 0.214 µM); MIC [7]: 1 µg/mL (≈ 1.65 µM)
Cn1c(N)n[n+]2c(SCSC3=C(C(=O)O)N4C(=O)[C@@H](NC(=O)CSc5cc(Cl)ccc5Cl)[C@H]4SC3)nc(N)cc12 [Example I-14, (6R,7R)-2,7-diamino-5-[({[2-carboxy-7-({2-[(2,5-dichlorophenyl)sulfany-1]acetyl}amino)-8-oxo-5-thia-1-azabicyclo[4.2.0]oct-2-en-3-yl]sulfanyl}methyl)sulfanyl]-1-methyl-1H,2H, 3H-[1,2,4]triazolo[1,5-c]pyrimidin-4-ium]	–	–	–	–	–	<0.008 :g/ml	0.13 :g/ml	0.13 :g/ml	0.25 :g/ml	2 :g/ml	–
CNc1[n+](C)c(N)nc(SCSC2=C(C(=O)O)N3C(=O)[C@@H](NC(=O)CSc4cc(Cl)ccc4Cl)[C@H]3SC2)[n+]1N [Example I-19, (6R,7R)-1,4-diamino-6-[({[2-carboxy-7-({2-[(2,5-dichlorophenyl)sulfany-1]acetyl}amino)-8-oxo-5-thia-1-azabicyclo[4.2.0]oct-2-en-3-yl]sulfanyl}methyl)sulfanyl]-3-methyl-2-(methylamino)-1,3,5-triazine-1,3-diium]	–	–	–	–	–	0.063 :g/ml	2 :g/ml	4 :g/ml	4 :g/ml	32 :g/ml	–
Cn1c(N)n[n+]2c(SCSC3=C(C(=O)O)N4C(=O)[C@@H](NC(=O)CSc5cc(Cl)nc(Cl)c5)[C@H]4SC3)nc(N)cc12 [Example I-31, 2,7-diamino-5-[({[(6R,7R)-2-carboxy-7-({2-[(2,6-dichloro-4-pyridinyl)sulf-anyl]acetyl}amino)-8-oxo-5-thia-1-azabicyclo[4.2.0]oct-2-en-3-yl]sulfanyl}methyl)sulfan-yl]-1-methyl-1H-[1,2,4]triazolo[1,5-c]pyrimidin-4-ium]	0.031 :g/ml	0.5 :g/ml	0.5 :g/ml	0.25 :g/ml	0.25 :g/ml	–	–	–	–	–	–
Nc1ncnc(SCSC2=C(C(=O)O)N3C(=O)[C@@H](NC(=O)CSc4cc(Cl)ccc4Cl)[C@H]3SC2)c1N [Example I-17, (6R,7R)-3-({[(5,6-diamino-4-pyrimidinyl)sulfanyl]methyl}sulfanyl)-7-({2-[(2,5-dichlorophenyl)sulfanyl]acetyl}amino)-8-oxo-5-thia-1-azabicyclo[4.2.0]oct-2-ene-2-carboxylic acid]	–	–	–	–	–	–	–	–	–	–	MIC [1]: 0.016 µg/mL (≈ 0.0264 µM); MIC ([2]; Table 1): 0.25 µg/mL (≈ 0.413 µM); MIC [6]: 0.5 µg/mL (≈ 0.826 µM); MIC ([4]; Table 1): 0.13 µg/mL (≈ 0.215 µM); MIC [7]: 2 µg/mL (≈ 3.3 µM)
(6R,7R)-2,4-diamino-6-[({[2-carboxy-7-({2-[(2,5-dichlorophenyl)sulfany-1]acetyl}amino)-8-oxo-5-thia-1-azabicyclo[4.2.0]oct-2-en-3-yl]sulfanyl}methyl)sulfanyl]-1-methylpyrimidi n-1-ium [Example I-15]	–	–	–	–	–	<0.008 :g/ml	0.13 :g/ml	0.25 :g/ml	0.13 :g/ml	1 :g/ml	–
Nc1cc(SCSC2=C(C(=O)O)N3C(=O)[C@@H](NC(=O)CSc4cc(Cl)ccc4Cl)[C@H]3SC2)nc(O)n1 [Example I-4, (6R,7R)-3-({[(6-amino-2-hydroxy-4-pyrimidinyl)sulfanyl]methyl}sulfanyl)-7-({2-[(2,5-dic hlorophenyl)sulfanyl]acetyl}amino)-8-oxo-5-thia-1-azabicyclo[4.2.0]oct-2-ene-2-carboxylic acid]	–	–	–	–	–	–	–	–	–	–	MIC [1]: < 0.008 µg/mL; MIC ([2]; Table 1): 0.25 µg/mL (≈ 0.412 µM); MIC [6]: 0.5 µg/mL (≈ 0.824 µM); MIC ([4]; Table 1): 0.25 µg/mL (≈ 0.412 µM); MIC [7]: 4 µg/mL (≈ 6.59 µM)
